Laboratory results from ChEMBL document CHEMBL1128992, “A Non-peptidic photoactivatable antagonist for mapping the antagonist binding site of the tachykinin NK2 receptor” (Bioorg Med Chem Lett, 1996).

Target: T1, Substance-K receptor (Homo sapiens, UniProt P21452)
T1 sequence (P21452 whole entry): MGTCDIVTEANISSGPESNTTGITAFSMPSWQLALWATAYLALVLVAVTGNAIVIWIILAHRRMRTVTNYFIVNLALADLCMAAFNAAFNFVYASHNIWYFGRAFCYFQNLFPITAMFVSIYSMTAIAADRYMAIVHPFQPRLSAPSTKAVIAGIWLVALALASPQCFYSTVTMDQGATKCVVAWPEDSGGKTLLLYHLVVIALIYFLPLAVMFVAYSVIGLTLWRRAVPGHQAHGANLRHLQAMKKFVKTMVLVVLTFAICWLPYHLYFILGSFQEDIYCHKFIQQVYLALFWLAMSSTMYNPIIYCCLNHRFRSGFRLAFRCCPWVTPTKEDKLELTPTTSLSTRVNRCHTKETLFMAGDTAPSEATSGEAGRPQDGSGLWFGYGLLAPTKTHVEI
Assay: Binding affinity was determined against human NK2 receptor in CHO cells using [125I]neurokinin A as radioligand
Type: cell-based

Row | IC50 [nM] | Compound
1 | 6.7 | CN(CC(CCN1CCC(O)(c2ccccc2)CC1)c1ccc(Cl)c(Cl)c1)C(=O)c1cccc(C2(C(F)(F)F)N=N2)c1 (racemic)
2 | 0.8 | CC(=O)NC1(c2ccccc2)CCN(CC[C@H](CN(C)C(=O)c2ccccc2)c2ccc(Cl)c(Cl)c2)CC1 (racemic) [SAREDUTANT]
